Reference: patent publication US11034702B2, “Thienoisoquinolines and their derivatives for the treatment of cancer” (VALORBEC, SOCIÉTÉ EN COMMANDITE, priority 2016, dated 2021)

Legend:
[1] = tested on: HeLa (cervical adenocarcinoma) cells; assay: IC50 (viability) in HeLa cells; format: cell-based, human; conditions: for IC50: Homo sapiens, HeLa cells, cells printed in nM; for efficacy (effect on viability) in cancer cells vs. non-cancer cells: comparison of Table 3 IC50 values
Method: (§1) 19 variants with different structural modifications have been made. […] In particular, it is shown that C75 causes death in multiple cancer cells with IC50 values in the 100 nM range, including breast cancers (MCF7, BT549), lung cancer (A549), colorectal cancer (HCT116) in addition to HeLa cells (cervical cancer).

[2] = tested on: MCF-7 (mammary gland carcinoma) cells; assay: IC50 (viability) in MCF-7 cells; format: cell-based; conditions: Homo sapiens, MCF7
Method: as §1

[3] = tested on: HFF1 (fibroblast) non-cancer cells; assay: IC50 (viability) in HFF1 non-cancer cells; format: cell-based; conditions: Homo sapiens; HFF-1 non-cancer cells
Method: as §1

HCT116 cells = assay: Mitotic spindle phenotype and centrosome fragment distance in HCT116 cells; format: cell-based; conditions: HCT116, paclitaxel alone
Method: (§2) FIG. 2A) is a line graph showing the percentage of HCT116 (p53−/−) cells, A549 cells, HeLa cells and H1299 cells in mitosis after treatment with various concentrations of C75 for one population doubling time. All of the cell lines show an increase in the proportion of mitotic cells after treatment with 200 nM C75. The bars indicate standard deviation. […] While the mitotic spindles were not dramatically altered by C75 in HFF1 cells, they were monopolar (as shown) or fragmented in the other cell types. […] The mitotic spindles were more strongly fragmented after C75 treatment in these cells vs. the cells in FIG. 2B). […] While mitotic spindles recovered bipolarity after removing nocodazole, they remained multipolar after removing C75. FIG. 2F) is a series of time-lapse images of a live HeLa cell expressing GFP:tubulin after treatment with C75 as shown in 2D) and 2E). The scale bar for all cells is 10 μm. FIG. 2G) is a schematic showing the putative target for C75. Healthy cells have two centrosomes that separate and form a bipolar spindle, while cancer cells have aberrant centrosomes that cluster to form ‘pseudo’ bipolar spindles, and C75 may target this process and their integrity.
FIG. 3A) is a line graph showing the percentage of mitotic HeLa or HFF1 cells treated with a range of paclitaxel (Taxol™; tubulin-targeting drug) concentrations+/−C75 as indicated. The bars indicate standard deviation. FIG. 3B) is a series of bar graphs showing the proportion of HCT116 cells that have monopolar spindles, bipolar spindles with aligned chromosomes, bipolar spindles with misaligned chromosomes and multipolar/fragmented spindles after treatments as shown. Treatments include DMSO (control), varying concentrations of paclitaxel and/or varying concentrations of C75 after 7 hours. While treatment of HCT116 cells with 2.5 nM paclitaxel caused a threshold of mitotic spindle phenotypes, adding increasing concentrations of C75 in combination with 2.5 nM paclitaxel caused the phenotypes to progressively worsen. FIG. 3C) is bar graph showing the average distance between centrosome fragments in HCT116 cells after treatments as shown. While centrosome fragments moved closer together with increased concentrations of paclitaxel, they moved further apart with increased concentrations of C75. […] FIG. 3E) is a line graph showing the percentage of mitotic HeLa or HFF1 cells treated with a range of nocodazole concentrations+/−C75 as indicated. The bars indicate standard deviation. […]
C75 was also tested for efficacy in different cancer cell lines. […] To further assess the role of C75 in affecting centrosomes, HeLa cells were treated with C75 for a short period of time (5 minutes), then C75 was removed and the cells were analyzed for spindle phenotypes (schematic in FIG. 2D). […]

[4] = tested on: BT549 (breast ductal carcinoma) cells; assay: IC50 (viability) in BT549 cells; format: cell-based; conditions: Homo sapiens, BT-549
Method: as §1

[5] = tested on: A549 (lung carcinoma) cells; assay: IC50 (viability) in A549 cells; format: cell-based; conditions: Homo sapiens
Method: as §1

[6] = tested on: MCF-10A (mammary gland fibrocystic disease) non-cancer cells; assay: IC50 (viability) in MCF-10A non-cancer cells; format: cell-based; conditions: Homo sapiens, MCF10A non-cancer cells
Method: as §1

HeLa cells = assay: Mitotic spindle / centrosome phenotype in HeLa cells (tubulin and DAPI staining, live imaging); format: cell-based, human
Method: There were more rounded mitotic cells after C75 treatment in comparison to the control. FIG. 1B) is a line graph showing the percentage of HeLa and HFF1 cells in mitosis after treatment with various concentrations of C75 for 8 hours. The bars indicate standard deviation. FIG. 1C) is a series of images showing cells that were fixed and co-stained for tubulin (microtubules) and DAPI (DNA). Treatment of HeLa cells with 300 nM C75 caused the mitotic spindles to be disorganized, while they were not affected in HFF1 cells. […] The scale bar for the cells is 10 μm. FIG. 1D) is a cartoon schematic showing the key features of a metaphase cell.
as §2
FIG. 3A) is a line graph showing the percentage of mitotic HeLa or HFF1 cells treated with a range of paclitaxel (Taxol™; tubulin-targeting drug) concentrations+/−C75 as indicated. The bars indicate standard deviation. FIG. 3B) is a series of bar graphs showing the proportion of HCT116 cells that have monopolar spindles, bipolar spindles with aligned chromosomes, bipolar spindles with misaligned chromosomes and multipolar/fragmented spindles after treatments as shown. Treatments include DMSO (control), varying concentrations of paclitaxel and/or varying concentrations of C75 after 7 hours. While treatment of HCT116 cells with 2.5 nM paclitaxel caused a threshold of mitotic spindle phenotypes, adding increasing concentrations of C75 in combination with 2.5 nM paclitaxel caused the phenotypes to progressively worsen. FIG. 3C) is bar graph showing the average distance between centrosome fragments in HCT116 cells after treatments as shown. While centrosome fragments moved closer together with increased concentrations of paclitaxel, they moved further apart with increased concentrations of C75. […] FIG. 3E) is a line graph showing the percentage of mitotic HeLa or HFF1 cells treated with a range of nocodazole concentrations+/−C75 as indicated. The bars indicate standard deviation. FIG. 3F) is a series of images showing fixed HeLa cells after treatment with C75+/− nocodazole co-stained for tubulin, γ-tubulin and DNA (DAPI). […] Adding nocodazole to cells treated with 300 nM C75 caused mitotic spindle phenotypes to worsen and appear more similar to those after treatment with 600 nM C75. The scale bar for all cells is 10 μm. FIG. 3G) is a bar graph showing the percentage of phenotypes observed for metaphase HeLa cells treated with nocodazole or C75, or both for 20 minutes (n>15 per treatment).
Spindle fragmentation only occurred after extensive microtubule depolymerization in colchicine-treated cells, while the spindle poles fragmented prior to changes in microtubules after C75 treatment. The scale bar for all cells is 10 μm.
C75 was further tested and found to cause mitotic arrest in HeLa cells. […]

**Q.** Which IC50 [1] does the source give for `Cc1ccc(S(=O)(=O)N2Cc3ccccc3-c3sccc32)cc1` [Compound C91] here?
**A.** 197 nM

**Q.** And the “efficacy (effect on viability) in cancer cells vs. non-cancer cells” value [1]?
**A.** higher efficacy

**Q.** And the IC50 [2]?
**A.** 1.02 µM

**Q.** And the IC50 [3]?
**A.** 0.92 µM

**Q.** How did the “change of centrosome fragment distance with increased paclitaxel concentration” value (HCT116 cells) turn out when `CC(=O)O[C@H]1C(=O)[C@@]2(C)[C@H]([C@H](OC(=O)c3ccccc3)[C@]3(O)C[C@H](OC(=O)[C@H](O)[C@@H](NC(=O)c4ccccc4)c4ccccc4)C(C)=C1C3(C)C)[C@]1(OC(C)=O)CO[C@@H]1C[C@@H]2O` [paclitaxel, reference compound] was run?
**A.** significant decrease in fragment distance

**Q.** `COc1ccc(S(=O)(=O)N2Cc3ccccc3-c3sc(I)cc32)cc1` [Compound C207] was tested. Which “efficacy (effect on viability) in cancer cells vs. non-cancer cells” value [1] did it give?
**A.** higher efficacy

**Q.** With `O=S(=O)(c1cccs1)N1Cc2ccccc2-c2sccc21` [Compound C87] as the molecule, how does the IC50 [1] read?
**A.** 845 nM

**Q.** And the IC50 [4]?
**A.** 4.2 µM

**Q.** What about the IC50 [5] of the same molecule?
**A.** 0.75 µM

**Q.** And the IC50 [2]?
**A.** 2.46 µM

**Q.** What about the IC50 [6] of the same molecule?
**A.** 0.539 µM

**Q.** `COc1cc2c(c(OC)c1OC)-c1ccc(OC)c(=O)cc1[C@@H](NC(C)=O)CC2` [colchicine, reference compound] was tested. Which “spindle phenotype at lower concentrations” value (HeLa cells; HeLa, 8 hours, 30 nM colchicine or 300 nM C75) did it give?
**A.** bipolar spindles with less robust microtubules

**Q.** What about the “spindle phenotype at higher concentrations” value (HeLa cells; HeLa, 8 hours, 40 or 50 nM colchicine, 400 or 500 nM C75) of the same molecule?
**A.** fragmented spindles, but only after extensive loss of microtubules

**Q.** What does the source list for `COC(=O)Nc1nc2ccc(C(=O)c3cccs3)cc2[nH]1` [nocodazole, reference compound]?
**A.** spindle phenotype after drug wash-out (HeLa cells; metaphase HeLa, 5 minutes treatment, washed out, imaged after 40 minutes): bipolar spindles reformed; spindle phenotype, drugs alone vs. together (HeLa cells; metaphase HeLa, nocodazole or C75 or both, 20 minutes): bipolar spindles with weak microtubules
